Values quoted from earlier work in patent publication US10092188B2, “Methods and compositions for identifying subjects at risk of developing stent thrombosis” (VisEn Medical, Inc., priority 2008, dated 2018).

## CY™ 5.5
Absorbance maximum of commercially available fluorochrome
  Absorbance max: 675 nm
Extinction coefficient of commercially available fluorochrome
  εmax: 250,000 M^−1cm^−1
